Measurements reported in the NIST ThermoML archive (doi:10.1016/j.jct.2008.12.018).
± gives the expanded uncertainty stated by the source.

Test: activity coefficient (dimensionless); of the first substance listed, at infinite dilution; xn = mol fraction of the nth substance listed
Details: Liquid, Chromatography, x1 = 0

Row | Compound | activity coefficient (318.15 K) | activity coefficient (328.15 K) | activity coefficient (338.15 K) | activity coefficient (348.15 K) | activity coefficient (358.15 K) | activity coefficient (368.15 K) | activity coefficient (298.15 K) | activity coefficient (308.15 K) | activity coefficient (298.15 K, 101 kPa) | activity coefficient (308.15 K, 101 kPa) | activity coefficient (318.15 K, 101 kPa) | activity coefficient (328.15 K, 101 kPa) | activity coefficient (338.15 K, 101 kPa) | activity coefficient (348.15 K, 101 kPa) | activity coefficient (358.15 K, 101 kPa) | activity coefficient (368.15 K, 101 kPa)
1 | CCCCCO [pentan-1-ol] + CCCCn1cc[n+](C)c1.N#C[S-] | 1.62 ± 0.11 | 1.54 ± 0.1 | 1.5 ± 0.1 | 1.47 ± 0.1 | 1.45 ± 0.1 | 1.44 ± 0.09 | – | – | – | – | – | – | – | – | – | –
2 | C=CCCCCCC [oct-1-ene] + CCCCn1cc[n+](C)c1.N#C[S-] | 96.3 ± 6.6 | 88.1 ± 6 | 82.5 ± 5.7 | 77.6 ± 5.3 | 73.8 ± 5.1 | – | 111 ± 8 | 102 ± 7 | – | – | – | – | – | – | – | –
3 | C1CCOC1 [tetrahydrofuran] + CCCCn1cc[n+](C)c1.N#C[S-] | – | – | – | – | – | – | – | – | 2 ± 0.14 | 1.98 ± 0.13 | 1.99 ± 0.14 | 1.99 ± 0.14 | 1.99 ± 0.14 | 1.99 ± 0.14 | 1.99 ± 0.14 | 2.01 ± 0.14
4 | CCCCCCCCCC [decane] + CCCCn1cc[n+](C)c1.N#C[S-] | 533 ± 26 | 470 ± 23 | 426 ± 20 | 386 ± 19 | 351 ± 17 | – | 628 ± 43 | 581 ± 40 | – | – | – | – | – | – | – | –
5 | C=CCCCC [hex-1-ene] + CCCCn1cc[n+](C)c1.N#C[S-] | 50.2 ± 3.4 | 44.9 ± 3.1 | 41.4 ± 2.8 | 38.3 ± 2.6 | 36.4 ± 2.5 | – | 61.6 ± 4.2 | 54.8 ± 3.8 | – | – | – | – | – | – | – | –
6 | Cc1cccc(C)c1 [1,3-dimethylbenzene] + CCCCn1cc[n+](C)c1.N#C[S-] | 5.98 ± 0.41 | 5.96 ± 0.41 | 5.96 ± 0.41 | 5.97 ± 0.41 | 5.99 ± 0.41 | 5.96 ± 0.41 | 5.92 ± 0.4 | 5.91 ± 0.4 | – | – | – | – | – | – | – | –
7 | CCCCCCCCC [nonane] + CCCCn1cc[n+](C)c1.N#C[S-] | 376 ± 26 | 332 ± 23 | 298 ± 20 | 272 ± 19 | 252 ± 17 | – | 459 ± 32 | 414 ± 28 | – | – | – | – | – | – | – | –
8 | CCO [ethanol] + CCCCn1cc[n+](C)c1.N#C[S-] | 0.69 ± 0.046 | 0.671 ± 0.045 | 0.655 ± 0.045 | 0.643 ± 0.044 | 0.631 ± 0.044 | 0.623 ± 0.043 | 0.743 ± 0.049 | 0.709 ± 0.047 | – | – | – | – | – | – | – | –
9 | C=CCCC [1-pentene] + CCCCn1cc[n+](C)c1.N#C[S-] | 41.5 ± 2.8 | 35.4 ± 2.4 | 32.6 ± 2.2 | 30.6 ± 2.1 | 27.6 ± 1.9 | – | 52.3 ± 3.6 | 46.4 ± 3.2 | – | – | – | – | – | – | – | –
10 | CO [methanol] + CCCCn1cc[n+](C)c1.N#C[S-] | 0.396 ± 0.034 | 0.391 ± 0.034 | 0.387 ± 0.034 | 0.386 ± 0.033 | 0.383 ± 0.033 | 0.382 ± 0.033 | 0.416 ± 0.035 | 0.396 ± 0.034 | – | – | – | – | – | – | – | –
11 | CCc1ccccc1 [ethylbenzene] + CCCCn1cc[n+](C)c1.N#C[S-] | 5.93 ± 0.4 | 5.86 ± 0.4 | 5.93 ± 0.4 | 5.83 ± 0.4 | 5.82 ± 0.4 | 5.81 ± 0.4 | 5.86 ± 0.4 | 5.9 ± 0.4 | – | – | – | – | – | – | – | –
12 | Cc1ccccc1 [toluene] + CCCCn1cc[n+](C)c1.N#C[S-] | 3.52 ± 0.24 | 3.53 ± 0.24 | 3.55 ± 0.24 | 3.59 ± 0.24 | 3.62 ± 0.25 | 3.65 ± 0.25 | 3.4 ± 0.23 | 3.48 ± 0.24 | – | – | – | – | – | – | – | –
13 | CCCCO [butan-1-ol] + CCCCn1cc[n+](C)c1.N#C[S-] | 1.25 ± 0.08 | 1.21 ± 0.08 | 1.16 ± 0.07 | 1.13 ± 0.07 | 1.1 ± 0.07 | 1.08 ± 0.07 | – | 1.32 ± 0.09 | – | – | – | – | – | – | – | –
14 | c1ccsc1 [thiophene] + CCCCn1cc[n+](C)c1.N#C[S-] | 1.26 ± 0.081 | 1.27 ± 0.082 | 1.29 ± 0.084 | 1.32 ± 0.085 | 1.33 ± 0.086 | 1.36 ± 0.089 | 1.21 ± 0.078 | 1.24 ± 0.08 | – | – | – | – | – | – | – | –
15 | c1ccccc1 [benzene] + CCCCn1cc[n+](C)c1.N#C[S-] | 2.17 ± 0.15 | 2.18 ± 0.15 | 2.2 ± 0.15 | 2.22 ± 0.15 | 2.25 ± 0.15 | 2.27 ± 0.15 | 2.13 ± 0.14 | 2.15 ± 0.15 | – | – | – | – | – | – | – | –
16 | C#CCCCC [1-hexyne] + CCCCn1cc[n+](C)c1.N#C[S-] | 6.59 ± 0.45 | 6.65 ± 0.45 | 6.76 ± 0.46 | 6.87 ± 0.47 | 6.95 ± 0.47 | – | 6.42 ± 0.44 | 6.45 ± 0.44 | – | – | – | – | – | – | – | –

Row | Compound | activity coefficient (318.15 K) | activity coefficient (328.15 K) | activity coefficient (338.15 K) | activity coefficient (348.15 K) | activity coefficient (358.15 K) | activity coefficient (368.15 K) | activity coefficient (298.15 K) | activity coefficient (308.15 K) | activity coefficient (298.15 K, 101 kPa) | activity coefficient (308.15 K, 101 kPa) | activity coefficient (318.15 K, 101 kPa) | activity coefficient (328.15 K, 101 kPa) | activity coefficient (338.15 K, 101 kPa) | activity coefficient (348.15 K, 101 kPa) | activity coefficient (358.15 K, 101 kPa) | activity coefficient (368.15 K, 101 kPa)
17 | C1CCCCC1 [cyclohexane] + CCCCn1cc[n+](C)c1.N#C[S-] | 47.1 ± 3.2 | 41.1 ± 2.8 | 36.8 ± 2.5 | 33.5 ± 2.3 | 31.1 ± 2.1 | – | 62.3 ± 4.3 | 53.5 ± 3.7 | – | – | – | – | – | – | – | –
18 | CCCCCCC [heptane] + CCCCn1cc[n+](C)c1.N#C[S-] | 213 ± 15 | 183 ± 13 | 162 ± 11 | 146 ± 10 | 132 ± 9 | – | 281 ± 19 | 245 ± 17 | – | – | – | – | – | – | – | –
19 | C#CCCCCCC [1-octyne] + CCCCn1cc[n+](C)c1.N#C[S-] | 15.4 ± 1.1 | 15.3 ± 1 | 15.3 ± 1 | 15.3 ± 1 | 15.3 ± 1 | – | 15.2 ± 1 | 15.1 ± 1 | – | – | – | – | – | – | – | –
20 | CCCCCC [hexane] + CCCCn1cc[n+](C)c1.N#C[S-] | 167 ± 11 | 143 ± 10 | 126 ± 9 | 108 ± 7 | 100 ± 7 | – | 226 ± 16 | 189 ± 13 | – | – | – | – | – | – | – | –
21 | COC(C)(C)C [2-methoxy-2-methylpropane] + CCCCn1cc[n+](C)c1.N#C[S-] | 11.9 ± 0.55 | 11.4 ± 0.52 | 11.1 ± 0.51 | 10.7 ± 0.49 | 10.6 ± 0.49 | – | 12.8 ± 0.59 | 12.4 ± 0.57 | – | – | – | – | – | – | – | –
22 | C#CCCCCC [1-heptyne] + CCCCn1cc[n+](C)c1.N#C[S-] | 10.1 ± 0.69 | 10.2 ± 0.7 | 10.2 ± 0.7 | 10.3 ± 0.7 | 10.4 ± 0.71 | – | 9.88 ± 0.67 | 9.92 ± 0.68 | – | – | – | – | – | – | – | –
23 | Cc1ccccc1C [1,2-dimethylbenzene] + CCCCn1cc[n+](C)c1.N#C[S-] | 4.71 ± 0.32 | 4.69 ± 0.32 | 4.71 ± 0.32 | 4.75 ± 0.32 | 4.78 ± 0.33 | 4.81 ± 0.33 | 4.58 ± 0.31 | 4.64 ± 0.32 | – | – | – | – | – | – | – | –
24 | Cc1ccc(C)cc1 [1,4-dimethylbenzene] + CCCCn1cc[n+](C)c1.N#C[S-] | 5.59 ± 0.38 | 5.6 ± 0.38 | 5.63 ± 0.38 | 5.68 ± 0.39 | 5.72 ± 0.39 | 5.75 ± 0.39 | 5.51 ± 0.38 | 5.54 ± 0.38 | – | – | – | – | – | – | – | –
25 | O [water] + CCCCn1cc[n+](C)c1.N#C[S-] | – | 0.316 ± 0.035 | 0.316 ± 0.035 | 0.32 ± 0.035 | 0.323 ± 0.035 | 0.325 ± 0.035 | – | – | – | – | – | – | – | – | – | –
26 | C#CCCC [1-pentyne] + CCCCn1cc[n+](C)c1.N#C[S-] | 4.71 ± 0.32 | 4.73 ± 0.32 | 4.79 ± 0.33 | 4.85 ± 0.33 | 4.97 ± 0.34 | – | 4.6 ± 0.31 | 4.68 ± 0.32 | – | – | – | – | – | – | – | –
27 | C1CCCC1 [cyclopentane] + CCCCn1cc[n+](C)c1.N#C[S-] | 34.9 ± 2.4 | 30 ± 2.1 | 26.8 ± 1.8 | 24.2 ± 1.7 | 23.1 ± 1.6 | – | 46.9 ± 3.2 | 39.7 ± 2.7 | – | – | – | – | – | – | – | –
28 | CCCO [propan-1-ol] + CCCCn1cc[n+](C)c1.N#C[S-] | 0.9 ± 0.06 | 0.87 ± 0.06 | 0.84 ± 0.05 | 0.83 ± 0.05 | 0.81 ± 0.05 | 0.8 ± 0.05 | – | 0.93 ± 0.06 | – | – | – | – | – | – | – | –
29 | CCCCCCCC [octane] + CCCCn1cc[n+](C)c1.N#C[S-] | 279 ± 19 | 243 ± 17 | 218 ± 15 | 198 ± 14 | 180 ± 12 | – | 350 ± 24 | 311 ± 21 | – | – | – | – | – | – | – | –
30 | C1CCCCCCC1 [cyclooctane] + CCCCn1cc[n+](C)c1.N#C[S-] | 57.8 ± 4 | 53.2 ± 3.6 | 48.6 ± 3.3 | 45 ± 3.1 | 41.9 ± 2.9 | – | 70 ± 4.8 | 63.1 ± 4.3 | – | – | – | – | – | – | – | –
31 | C1CCCCCC1 [cycloheptane] + CCCCn1cc[n+](C)c1.N#C[S-] | 46.5 ± 3.2 | 42 ± 2.9 | 38.9 ± 2.7 | 36.1 ± 2.5 | 33.7 ± 2.3 | – | 56.6 ± 3.9 | 51 ± 3.5 | – | – | – | – | – | – | – | –
